Starred links: 1 amine or outer side, 2 acyl side, 3 side chain; linkers in the order of their positions; H or OH if unused. Non-standard residues stand in square brackets, D forms with d. Residues, ends and D or L forms follow the SMILES beside them. Groups on a side chain read outwards from the residue. *: point of attachment. X1 = CC(C)(CCNC(=N)N)[C@H](N[*:1])C(=O)[*:2]; C18 diacid = O=C(O)CCCCCCCCCCCCCCCCC(=O)*; γGlu = O=C(O)[C@H](CCC(=O)[*:2])N[*:1]; Stearoyl = CCCCCCCCCCCCCCCCCC(=O)*; Palmitoyl = CCCCCCCCCCCCCCCC(=O)*; αMeF = C[C@](N)(Cc1ccccc1)C(=O)O; Myristoyl = CCCCCCCCCCCCCC(=O)*; PEG2 = NCCOCCOCCC(=O)O; AEEA = NCCOCCOCC(=O)O; Aib = CC(C)(N)C(=O)O
Molecular target: human GLP-1 receptor (hGLP-1R) (Homo sapiens, UniProt P43220)
Assay: cAMP production (HTRF) in CHO cells expressing hGLP-1R
Format: cell-based
Design: expressed in transfected cells
Conditions: for % Relative Potency Ratio: Table 6, % GLP-1R activity relative to GLP-1 / % GlucR activity relative to glucagon; for EC50: Table 6, peptides modified at position 17, cAMP in CHO hGLP-1R cells, geometric mean, read-out: hGLP-1R EC50
Description: Cells were re-suspended in assay buffer at a batch-dependent optimized concentration (typically hGLP-1R cells at 1×10^5 cells/mL, hGCGR cells at 2×10^5 cells/mL).
Cells were added to the assay plate using a multidrop dispenser and incubated at room temperature for 30 minutes before measuring the cAMP level using a cAMP dynamic 2 homogeneous time resolved Fluorescence (HTRF) kit (Cisbio Bioassays #62AM4PEJ) following the two-step protocol as per manufacturer's recommendations. In brief, anti-cAMP cryptate (donor fluorophore) and cAMP-d2 (acceptor fluorophore) were made up separately by diluting each 1 in 20 in conjugate and lysis buffer provided in the kit. Anti-CAMP cryptate was added to all wells of the assay plate, followed by cAMP-d2 added to all wells except non-specific binding (NSB) wells (to which conjugate and lysis buffer was added).
Data was transformed to % Delta F as described in the manufacturer's guidelines and analyzed by 4-parameter logistic fit to determine EC50 values.

Sequence of human GLP-1 receptor (hGLP-1R) (P43220 24-463): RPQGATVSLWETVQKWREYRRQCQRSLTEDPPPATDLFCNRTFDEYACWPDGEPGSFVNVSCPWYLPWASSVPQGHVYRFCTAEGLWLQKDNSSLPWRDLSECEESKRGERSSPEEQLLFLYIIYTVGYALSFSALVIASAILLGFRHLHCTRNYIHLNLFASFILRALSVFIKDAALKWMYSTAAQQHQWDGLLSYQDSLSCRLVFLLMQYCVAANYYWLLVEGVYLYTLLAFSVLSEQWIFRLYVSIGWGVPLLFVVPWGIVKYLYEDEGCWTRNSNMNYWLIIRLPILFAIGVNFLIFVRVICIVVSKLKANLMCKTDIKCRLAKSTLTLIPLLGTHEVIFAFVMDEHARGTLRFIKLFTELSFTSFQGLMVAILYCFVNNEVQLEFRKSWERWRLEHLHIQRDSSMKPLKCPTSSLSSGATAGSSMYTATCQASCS

| SMILES | % Relative Potency Ratio | EC50 |
| --- | --- | --- |
| CCCCCCCCCCCCCCCCCC(=O)N[C@@H](CCC(=O)N[C@@H](CCC(=O)NCCOCCOCCC(=O)NCCOCCOCCC(=O)NCCCC[C@H](NC(=O)[C@H](CO)NC(=O)[C@H](CC(=O)O)NC(=O)[C@H](CC(C)C)NC(=O)[C@](C)(Cc1ccccc1)NC(=O)[C@H](CCCCN)NC(=O)[C@H](CO)NC(=O)[C@@H](NC(=O)[C@H](CC(=O)O)NC(=O)[C@H](CO)NC(=O)[C@@H](NC(=O)[C@](C)(Cc1ccccc1)NC(=O)[C@H](CO)NC(=O)CNC(=O)[C@H](CCC(N)=O)NC(=O)C(C)(C)NC(=O)[C@@H](N)Cc1c[nH]cn1)[C@@H](C)O)C(C)C)C(=O)N[C@H](C(=O)N[C@@H](C)C(=O)N[C@@H](CCC(N)=O)C(=O)N[C@@H](CC(=O)O)C(=O)N[C@@](C)(Cc1ccccc1)C(=O)N[C@H](C(=O)N[C@@H](CCC(=O)O)C(=O)NC(C)(C)C(=O)N[C@@H](CC(C)C)C(=O)N[C@@H](CCC(=O)O)C(=O)N[C@@H](C)C(=O)NCC(=O)NCC(N)=O)C(C)C)C(C)(C)CCNC(=N)N)C(=O)O)C(=O)O [Peptide 74] (H-H[Aib]QGS[αMeF]TSDVSK[αMeF]LDSK([PEG2-PEG2-γGlu-γGlu-Stearoyl])[X1]AQD[αMeF]VE[Aib]LEAGG-NH2; N-terminus assumed) | 11.8 | – |
| CCCCCCCCCCCCCCCCCC(=O)N[C@@H](CCC(=O)N[C@@H](CCC(=O)NCCOCCOCCC(=O)NCCOCCOCCC(=O)NCCCC[C@H](NC(=O)[C@H](CO)NC(=O)[C@H](CC(=O)O)NC(=O)[C@H](CC(C)C)NC(=O)[C@](C)(Cc1ccccc1)NC(=O)[C@H](CCCCN)NC(=O)[C@H](CO)NC(=O)[C@@H](NC(=O)[C@H](CC(=O)O)NC(=O)[C@H](CO)NC(=O)[C@@H](NC(=O)[C@](C)(Cc1ccccc1)NC(=O)[C@H](CO)NC(=O)CNC(=O)[C@H](CCC(N)=O)NC(=O)[C@H](CO)NC(=O)[C@@H](N)Cc1c[nH]cn1)[C@@H](C)O)C(C)C)C(=O)N[C@@H](C)C(=O)N[C@@H](C)C(=O)N[C@@H](CCC(N)=O)C(=O)N[C@@H](CC(=O)O)C(=O)N[C@@](C)(Cc1ccccc1)C(=O)N[C@H](C(=O)N[C@@H](CCC(N)=O)C(=O)NC(C)(C)C(=O)N[C@H](C(=O)N[C@@H](C)C(=O)N[C@@H](CC(N)=O)C(=O)N[C@H](C(N)=O)[C@@H](C)O)[C@@H](C)CC)C(C)C)C(=O)O)C(=O)O [Peptide 82] (H-HSQGS[αMeF]TSDVSK[αMeF]LDSK([PEG2-PEG2-γGlu-γGlu-Stearoyl])AAQD[αMeF]VQ[Aib]IANT-NH2; N-terminus assumed) | 18.3 | – |
| CCCCCCCCCCCCCCCC(=O)N[C@@H](CCC(=O)N[C@@H](CCC(=O)NCCOCCOCCC(=O)NCCOCCOCCC(=O)NCCCC[C@H](NC(=O)[C@H](CO)NC(=O)[C@H](CC(=O)O)NC(=O)[C@H](CC(C)C)NC(=O)[C@](C)(Cc1ccccc1)NC(=O)[C@H](CCCCN)NC(=O)[C@H](CO)NC(=O)[C@@H](NC(=O)[C@H](CC(=O)O)NC(=O)[C@H](CO)NC(=O)[C@@H](NC(=O)[C@](C)(Cc1ccccc1)NC(=O)[C@H](CO)NC(=O)CNC(=O)[C@H](CCC(N)=O)NC(=O)[C@H](CO)NC(=O)[C@@H](N)Cc1c[nH]cn1)[C@@H](C)O)C(C)C)C(=O)N[C@@H](C)C(=O)N[C@@H](C)C(=O)N[C@@H](CCC(N)=O)C(=O)N[C@@H](CC(=O)O)C(=O)N[C@@](C)(Cc1ccccc1)C(=O)N[C@H](C(=O)N[C@@H](CCC(N)=O)C(=O)N[C@H](C(=O)N[C@H](C(=O)N[C@@H](C)C(=O)N[C@@H](CC(N)=O)C(N)=O)[C@@H](C)CC)[C@@H](C)CC)C(C)C)C(=O)O)C(=O)O [Peptide 89] (H-HSQGS[αMeF]TSDVSK[αMeF]LDSK([PEG2-PEG2-γGlu-γGlu-Palmitoyl])AAQD[αMeF]VQIIAN-NH2; N-terminus assumed) | 8.0 | – |
| CCCCCCCCCCCCCC(=O)N[C@@H](CCC(=O)NCCOCCOCCC(=O)NCCOCCOCCC(=O)NCCCC[C@H](NC(=O)[C@H](CO)NC(=O)[C@H](CC(=O)O)NC(=O)[C@H](CC(C)C)NC(=O)[C@@H](NC(=O)[C@H](CCCCN)NC(=O)[C@H](CO)NC(=O)[C@@H](NC(=O)[C@H](CC(=O)O)NC(=O)[C@H](CO)NC(=O)[C@@H](NC(=O)[C@](C)(Cc1ccccc1)NC(=O)[C@H](CO)NC(=O)CNC(=O)[C@H](CCC(N)=O)NC(=O)[C@H](CO)NC(=O)[C@@H](N)Cc1c[nH]cn1)[C@@H](C)O)C(C)C)[C@@H](C)CC)C(=O)N[C@@H](C)C(=O)N[C@@H](C)C(=O)N[C@@H](CCC(N)=O)C(=O)N[C@@H](CC(=O)O)C(=O)N[C@@](C)(Cc1ccccc1)C(=O)N[C@H](C(=O)N[C@@H](CCC(N)=O)C(=O)NC(C)(C)C(=O)N[C@H](C(=O)N[C@H](C(=O)N[C@@H](CC(N)=O)C(=O)N[C@H](C(N)=O)[C@@H](C)O)[C@@H](C)CC)[C@@H](C)CC)C(C)C)C(=O)O [Peptide 122] (H-HSQGS[αMeF]TSDVSKILDSK([PEG2-PEG2-γGlu-Myristoyl])AAQD[αMeF]VQ[Aib]IINT-NH2; N-terminus assumed) | 1.2 | 1.42 pM |
| CC(C)C[C@H](NC(=O)[C@H](Cc1c[nH]c2ccccc12)NC(=O)[C@H](CCCNC(=N)N)NC(=O)[C@@H](NC(=O)[C@H](Cc1ccccc1)NC(=O)[C@H](CC(=O)O)NC(=O)[C@H](CCCNC(=N)N)NC(=O)[C@H](C)NC(=O)[C@H](CCCNC(=N)N)NC(=O)[C@H](CCCCNC(=O)CC[C@H](NC(=O)CC[C@H](NC(=O)COCCOCCNC(=O)COCCOCCNC(=O)CC[C@H](NC(=O)CC[C@H](NC(=O)CCCCCCCCCCCCCCCCC(=O)O)C(=O)O)C(=O)O)C(=O)O)C(=O)O)NC(=O)[C@H](CO)NC(=O)[C@H](CC(=O)O)NC(=O)[C@H](CC(C)C)NC(=O)[C@](C)(Cc1ccccc1)NC(=O)[C@H](CCCCN)NC(=O)[C@H](CO)NC(=O)[C@@H](NC(=O)[C@H](CC(=O)O)NC(=O)[C@H](CO)NC(=O)[C@@H](NC(=O)[C@H](Cc1ccccc1)NC(=O)[C@@H](NC(=O)CNC(=O)[C@H](CCC(N)=O)NC(=O)C(C)(C)NC(=O)[C@@H](N)Cc1c[nH]cn1)[C@@H](C)O)[C@@H](C)O)C(C)C)C(C)C)C(=O)N[C@@H](CC(C)C)C(=O)N[C@@H](CCC(=O)O)C(=O)NC(C)(C)C(=O)NCC(=O)O [Peptide 136] (H-H[Aib]QGTFTSDVSK[αMeF]LDSK([γGlu-γGlu-AEEA-AEEA-γGlu-γGlu-C18 diacid])RARDFVRWLLE[Aib]G-OH; N-terminus assumed) | 22.3 | – |
| CC(C)C[C@H](NC(=O)[C@H](Cc1c[nH]c2ccccc12)NC(=O)[C@H](CCCNC(=N)N)NC(=O)[C@@H](NC(=O)[C@H](Cc1ccccc1)NC(=O)[C@H](CC(=O)O)NC(=O)[C@H](CCCNC(=N)N)NC(=O)[C@H](C)NC(=O)[C@H](CCCNC(=N)N)NC(=O)[C@H](CCCCNC(=O)CC[C@H](NC(=O)CC[C@H](NC(=O)COCCOCCNC(=O)COCCOCCNC(=O)CC[C@H](NC(=O)CC[C@H](NC(=O)CCCCCCCCCCCCCCCCC(=O)O)C(=O)O)C(=O)O)C(=O)O)C(=O)O)NC(=O)[C@H](CO)NC(=O)[C@H](CC(=O)O)NC(=O)[C@H](CC(C)C)NC(=O)[C@](C)(Cc1ccccc1)NC(=O)[C@H](CCCCN)NC(=O)[C@H](CO)NC(=O)[C@@H](NC(=O)[C@H](CC(=O)O)NC(=O)[C@H](CO)NC(=O)[C@@H](NC(=O)[C@H](Cc1ccccc1)NC(=O)[C@@H](NC(=O)CNC(=O)[C@H](CCC(N)=O)NC(=O)C(C)(C)NC(=O)[C@@H](N)Cc1c[nH]cn1)[C@@H](C)O)[C@@H](C)O)C(C)C)C(C)C)C(=O)N[C@@H](CC(C)C)C(=O)N[C@@H](CCC(=O)O)C(=O)NC(C)(C)C(=O)NCC(=O)O [Peptide 144] (H-H[Aib]QGTFTSDVSK[αMeF]LDSK([γGlu-γGlu-AEEA-AEEA-γGlu-γGlu-C18 diacid])RARDFVRWLLE[Aib]G-OH; N-terminus assumed) | 30.7 | 45.2 pM |
| CC(C)C[C@H](NC(=O)[C@H](Cc1c[nH]c2ccccc12)NC(=O)[C@H](CCCNC(=N)N)NC(=O)[C@@H](NC(=O)[C@H](Cc1ccccc1)NC(=O)[C@H](CC(=O)O)NC(=O)[C@H](CCC(N)=O)NC(=O)[C@H](C)NC(=O)[C@H](CCCNC(=N)N)NC(=O)[C@H](CCCCNC(=O)COCCOCCNC(=O)COCCOCCNC(=O)CC[C@H](NC(=O)CCCCCCCCCCCCCCCCC(=O)O)C(=O)O)NC(=O)[C@H](CO)NC(=O)[C@H](CC(=O)O)NC(=O)[C@H](CC(C)C)NC(=O)[C@](C)(Cc1ccccc1)NC(=O)[C@H](CCCCN)NC(=O)[C@H](CO)NC(=O)[C@@H](NC(=O)[C@H](CC(=O)O)NC(=O)[C@H](CO)NC(=O)[C@@H](NC(=O)[C@H](Cc1ccccc1)NC(=O)[C@@H](NC(=O)CNC(=O)[C@H](CCC(N)=O)NC(=O)C(C)(C)NC(=O)[C@@H](N)Cc1c[nH]cn1)[C@@H](C)O)[C@@H](C)O)C(C)C)C(C)C)C(=O)N[C@@H](CC(C)C)C(=O)NC(C)(C)C(=O)N[C@H](C(=O)N[C@@H](CCCCN)C(=O)O)[C@@H](C)O [Peptide 177] | 25.5 | – |

Source: US20250353891A1 (MEDIMMUNE LIMITED, priority 2022, published 2025)
